From PubChem BioAssay (NCI)
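Growth conditions: 96-well plates. Treatment: test compound, 48 hours, 5 concentrations. Analysis: linear interpolation between bracketing concentrations; unreached endpoints set to highest concentration. TGI is the concentration that stops growth completely.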

How the values were obtained:
Assay in all cases: NCI anticancer screen, dose series, 48 h
A498 renal = tested on: A498 renal
BT-549 breast = tested on: BT-549 breast
CAKI-1 renal = tested on: CAKI-1 renal
DU-145 prostate = tested on: DU-145 prostate
EKVX NSCLC = tested on: EKVX NSCLC
HCT-15 colon = tested on: HCT-15 colon
HT29 colon = tested on: HT29 colon
MCF7 breast = tested on: MCF7 breast
MDA-N = tested on: MDA-N
MOLT-4 leukemia = tested on: MOLT-4 leukemia
RXF 393 renal = tested on: RXF 393 renal
SF-268 CNS = tested on: SF-268 CNS
SK-OV-3 ovarian = tested on: SK-OV-3 ovarian
SNB-75 CNS = tested on: SNB-75 CNS
SW-620 colon = tested on: SW-620 colon
UACC-257 melanoma = tested on: UACC-257 melanoma
PC-3 prostate = tested on: PC-3 prostate
OVCAR-3 ovarian = tested on: OVCAR-3 ovarian

Measured: TGI

FC(F)(F)c1ccc2nc(Sc3ccc4ccccc4c3)cnc2c1
> 100 µM: A498 renal | BT-549 breast | CAKI-1 renal | DU-145 prostate | EKVX NSCLC | HCT-15 colon | HT29 colon | MDA-N | MOLT-4 leukemia | SF-268 CNS | SK-OV-3 ovarian | SNB-75 CNS | SW-620 colon | UACC-257 melanoma
95 µM: MCF7 breast
92.6 µM: RXF 393 renal

Cc1ccccc1NC(=O)Cc1csc(N=Nc2c(O)[nH]c3ccccc23)n1
37.6 µM: CAKI-1 renal
37.2 µM: PC-3 prostate
> 100 µM: A498 renal | DU-145 prostate | EKVX NSCLC | HCT-15 colon | HT29 colon | MCF7 breast | MDA-N | MOLT-4 leukemia | SF-268 CNS | SNB-75 CNS | UACC-257 melanoma
69.5 µM: RXF 393 renal
> 1 µM: SW-620 colon

CCn1c2ccccc2c2cc(Nc3cc(C)[nH]c(=O)n3)ccc21
> 100 µM: A498 renal | CAKI-1 renal | DU-145 prostate | EKVX NSCLC | HCT-15 colon | HT29 colon | MCF7 breast | MDA-N | OVCAR-3 ovarian | PC-3 prostate | RXF 393 renal | SF-268 CNS | SK-OV-3 ovarian | SW-620 colon | UACC-257 melanoma

O=c1[nH]nc(-c2ccccc2)n1-n1cnnc1
> 100 µM: A498 renal | BT-549 breast | CAKI-1 renal | EKVX NSCLC | HCT-15 colon | HT29 colon | MCF7 breast | MDA-N | MOLT-4 leukemia | OVCAR-3 ovarian | PC-3 prostate | RXF 393 renal | SF-268 CNS | SK-OV-3 ovarian | SNB-75 CNS | SW-620 colon | UACC-257 melanoma

CCOC(=O)CCC(NC(=O)c1ccc(Nc2nc3ccccc3nc2C(=O)OCC)cc1)C(=O)OCC (stereo not drawn)
6.16 µM: SNB-75 CNS
40.1 µM: EKVX NSCLC
25.7 µM: BT-549 breast
> 79 µM: MCF7 breast
> 35.8 µM: DU-145 prostate
49.9 µM: SW-620 colon
> 89.7 µM: HT29 colon
18.6 µM: A498 renal
4.73 µM: OVCAR-3 ovarian
14.4 µM: CAKI-1 renal
43.7 µM: SF-268 CNS
8.01 µM: SK-OV-3 ovarian
> 100 µM: HCT-15 colon | MDA-N | MOLT-4 leukemia | PC-3 prostate | UACC-257 melanoma

CCOC(=O)/C=C/[C@@H](CC)O[Si](C(C)C)(C(C)C)C(C)C
> 100 µM: A498 renal | BT-549 breast | CAKI-1 renal | DU-145 prostate | EKVX NSCLC | HCT-15 colon | HT29 colon | MCF7 breast | MDA-N | MOLT-4 leukemia | OVCAR-3 ovarian | PC-3 prostate | SF-268 CNS | SK-OV-3 ovarian | SNB-75 CNS | SW-620 colon | UACC-257 melanoma

COC1CC(OC2C(C)OC(OC3C(C)OC(OC4C(C)OC(O[C@H]5CC[C@@]6(C)C(=CC[C@]7(O)[C@@H]6C[C@@H](O)[C@@]6(C)[C@]7(O)CC[C@@]6(O)C(C)=O)C5)CC4OC)CC3OC)CC2OC)OC(C)C1O (stereo partly drawn)
> 12.5 µM: BT-549 breast | CAKI-1 renal | DU-145 prostate | EKVX NSCLC | HCT-15 colon | HT29 colon | MCF7 breast | MDA-N | MOLT-4 leukemia | OVCAR-3 ovarian | PC-3 prostate | SF-268 CNS | SK-OV-3 ovarian | SNB-75 CNS | SW-620 colon | UACC-257 melanoma
